# How the values were obtained:
# [1] = target: T1, Steroid 17-alpha-hydroxylase/17,20 lyase (Homo sapiens, UniProt P05093); test: Inhibition of CYP17 in human testicular microsomes using 17alpha-hydroxypregnenolone as substrate assessed as decrease in DHEA levels at 1 nM after 90 mins by ELISA relative to control; design: species or system Testis
# T1 sequence (P05093 whole entry): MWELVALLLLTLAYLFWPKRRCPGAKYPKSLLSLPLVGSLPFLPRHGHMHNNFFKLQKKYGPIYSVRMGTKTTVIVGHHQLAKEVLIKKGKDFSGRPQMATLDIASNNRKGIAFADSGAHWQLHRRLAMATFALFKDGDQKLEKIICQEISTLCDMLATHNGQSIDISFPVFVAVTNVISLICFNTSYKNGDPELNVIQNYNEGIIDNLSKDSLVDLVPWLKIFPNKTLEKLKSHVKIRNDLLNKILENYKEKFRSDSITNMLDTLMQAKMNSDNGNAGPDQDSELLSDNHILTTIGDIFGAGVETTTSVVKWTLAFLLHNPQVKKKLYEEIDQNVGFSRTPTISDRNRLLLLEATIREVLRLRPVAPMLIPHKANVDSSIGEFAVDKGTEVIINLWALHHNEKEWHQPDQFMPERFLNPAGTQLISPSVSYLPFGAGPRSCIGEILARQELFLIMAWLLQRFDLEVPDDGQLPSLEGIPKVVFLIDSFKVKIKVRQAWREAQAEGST
# [2] = Half life in human liver microsomes at 1 uM by LC-MS/MS analysis
# [3] = target: T2, CYP21 (steroid 21-hydroxylase) (Homo sapiens, UniProt P08686); test: Inhibition of human CYP21 transfected in HEK293 cells assessed as decrease in conversion of progesterone to 11-deoxycorticosterone preincubated for 5 hrs followed by progesterone addition measured after 20 hrs by ELISA; type: cell-based; design: concentration or dose not given beside the values; conditions: HEK293 cells transfected with human CYP21, probe progesterone
# T2 sequence (P08686 whole entry): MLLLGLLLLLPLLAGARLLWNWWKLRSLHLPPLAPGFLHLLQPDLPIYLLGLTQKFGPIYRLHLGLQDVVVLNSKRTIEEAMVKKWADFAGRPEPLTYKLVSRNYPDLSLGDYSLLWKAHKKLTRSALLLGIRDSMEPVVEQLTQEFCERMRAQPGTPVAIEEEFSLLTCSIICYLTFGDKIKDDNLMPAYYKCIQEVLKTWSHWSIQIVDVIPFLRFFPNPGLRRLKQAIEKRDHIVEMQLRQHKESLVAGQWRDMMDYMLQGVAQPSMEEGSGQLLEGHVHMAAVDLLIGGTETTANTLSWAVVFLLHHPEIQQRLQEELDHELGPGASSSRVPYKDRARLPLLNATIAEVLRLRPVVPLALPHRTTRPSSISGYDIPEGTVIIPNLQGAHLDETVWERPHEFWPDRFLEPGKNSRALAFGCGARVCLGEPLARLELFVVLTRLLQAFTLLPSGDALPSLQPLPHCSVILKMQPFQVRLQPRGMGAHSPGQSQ
# [4] = target: T1, Steroid 17-alpha-hydroxylase/17,20 lyase; test: Inhibition of CYP17 in human testicular microsomes using 17alpha-hydroxypregnenolone as substrate assessed as decrease in DHEA levels after 90 mins by ELISA; design: species or system Testis
# [5] = target: T1, Steroid 17-alpha-hydroxylase/17,20 lyase; test: Inhibition of CYP17 in human H295R cells assessed as decrease in testosterone levels after 24 hrs by ELISA; type: cell-based
# [6] = target: T1, Steroid 17-alpha-hydroxylase/17,20 lyase; test: Inhibition of CYP17 in human testicular microsomes using 17alpha-hydroxypregnenolone as substrate assessed as decrease in DHEA levels at 10 nM after 90 mins by ELISA relative to control; design: species or system Testis; conditions: 1.5 h
# [7] = Half life in rat liver microsomes at 1 uM by LC-MS/MS analysis
Compound,IC50 [1],half-life at 1 µM [2],inhibition at 20 h [3],IC50 [4],IC50 [5],inhibition at 0.01 µM [6],half-life at 1 µM [7]
C[C@]12CC[C@H]3[C@@H](CC4(CC4)C4=CC(=O)CC[C@@]43C)C1=CC=C2c1cccnc1,≤ 10 nM,–,–,–,–,–,–
CN1CC[C@@]2(C)C(=CC1=O)CC[C@H]1C3=CC=C(c4cncc(F)c4)[C@@]3(C)CC[C@@H]12,> 100 nM,–,–,–,–,–,–
C[C@]12CCC(=O)C=C1C=C[C@@H]1[C@@H]2CC[C@]2(C)C(c3cccnc3)=CC[C@@H]12,> 100 nM,1 to 50 min,≥ 50%,–,–,–,–
CC(=O)N[C@@H]1CC[C@@]2(C)C(=CC[C@@H]3[C@@H]2CC[C@]2(C)C(c4cccnc4)=CC[C@@H]32)C1,–,1 to 50 min,≥ 50%,≤ 11 nM,≤ 15 nM,–,–
CC1=C2CC[C@H]3C4=CC=C(c5cccnc5)[C@@]4(C)CC[C@@H]3[C@@]2(C)CCC1=O,> 100 nM,–,≥ 50%,–,–,–,–
C[C@]12CC[C@H]3[C@@H](CC4CC45C[C@@H](O)CC[C@]35C)[C@@H]1CC=C2c1cccnc1 (some centres undefined),–,1 to 50 min,≥ 50%,≤ 11 nM,≤ 15 nM,–,–
CC(=O)O[C@H]1CC[C@@]2(C)[C@@H](CC[C@@H]3[C@@H]2CC[C@]2(C)C(n4ccnn4)=CC[C@@H]32)C1,–,–,–,≤ 11 nM,≤ 15 nM,≥ 80%,–
C[C@]12CC/C(=N\O)C=C1C1(CC1)C[C@@H]1[C@@H]2CC[C@]2(C)C(c3cccnc3)=CC[C@@H]12,> 100 nM,–,10 to 50%,–,–,–,–
CN1CC[C@@]2(C)C(=CC1=O)C1CC1[C@H]1C3=CC=C(c4cccnc4)[C@@]3(C)CC[C@@H]12 (some centres undefined),10 to 100 nM,–,–,–,–,–,–
C=C1C[C@H]2C3=CC=C(c4cccnc4)[C@@]3(C)CC[C@@H]2[C@@]2(C)C=CC(=O)C=C12,≤ 10 nM,1 to 50 min,–,–,–,–,–
CC1C[C@H]2C3=CC=C(c4cncc(F)c4)[C@@]3(C)CC[C@@H]2[C@@]2(C)CCNC(=O)C=C12 (some centres undefined),10 to 100 nM,1 to 50 min,10 to 50%,–,–,–,–
C[C@]12CCC(=O)C=C1C1CC1[C@@H]1[C@@H]2CC[C@]2(C)C(c3cccnc3)=CC[C@@H]12 (some centres undefined),> 100 nM,1 to 50 min,≥ 50%,–,–,–,–
C[C@]12CC[C@H]3[C@@H](C=CC4=C(O)C(=O)CC[C@@]43C)C1=CC=C2c1cccnc1,> 100 nM,1 to 50 min,≥ 50%,–,–,–,–
C[C@]12CC[C@H]3[C@@H](CC=C4C[C@@H](O)CC[C@@]43C)C1=CC=C2c1cncc(F)c1,–,1 to 50 min,≥ 50%,≤ 11 nM,≤ 15 nM,–,–
CC1C[C@@H]2[C@H](CC[C@]3(C)C(c4cccnc4)CC[C@@H]23)[C@@]2(C)CCNC(=O)C=C12 (some centres undefined),≤ 10 nM,1 to 50 min,–,–,–,–,–
CC1C[C@@H]2[C@H](CC[C@]3(C)C(c4cccnc4)CC[C@@H]23)[C@@]2(C)CCC(=O)C=C12 (some centres undefined),≤ 10 nM,1 to 50 min,–,–,–,–,–
CC1C[C@@H]2[C@H](CC[C@]3(C)C(c4cncc(F)c4)=CC[C@@H]23)[C@@]2(C)C=CC(=O)C=C12 (some centres undefined),10 to 100 nM,–,≥ 50%,≤ 11 nM,–,–,–
C[C@]12CC[C@H]3[C@@H](CC(C4CC4)C4=CC(=O)CC[C@@]43C)C1=CC=C2c1cccnc1 (some centres undefined),> 100 nM,–,10 to 50%,–,–,–,–
C[C@]12CC[C@H]3[C@@H](CC[C@H]4C[C@@H](O)CC[C@@]43C)C1=CC=C2n1ccnc1,–,≥ 50 min,–,≤ 11 nM,≤ 15 nM,≥ 80%,10 to 60 min
C[C@]12CCNC(=O)C=C1CC[C@@H]1[C@@H]2CC[C@]2(C)C(c3cncc(C(F)F)c3)=CC[C@@H]12,–,1 to 50 min,≥ 50%,≤ 11 nM,≤ 15 nM,–,–

Compound,IC50 [1],half-life at 1 µM [2],inhibition at 20 h [3],IC50 [4],IC50 [5],inhibition at 0.01 µM [6],half-life at 1 µM [7]
CCC1C[C@@H]2[C@H](CC[C@]3(C)C(c4cccnc4)=CC[C@@H]23)[C@@]2(C)CCC(=O)C=C12 (some centres undefined),10 to 100 nM,–,10 to 50%,–,–,–,–
C[C@]12CC(O)CC1CC[C@@H]1[C@@H]2CC[C@]2(C)C(c3cncc(F)c3)=CC[C@@H]12 (some centres undefined),–,≥ 50 min,10 to 50%,≤ 11 nM,≤ 15 nM,–,–
C[C@]12CC(O)CC1CC[C@@H]1[C@@H]2CC[C@]2(C)C(c3cccnc3)=CC[C@@H]12 (some centres undefined),–,1 to 50 min,≥ 50%,≤ 11 nM,≤ 15 nM,–,–
C=C1C[C@H]2C3=CC=C(c4cccnc4)[C@@]3(C)CC[C@@H]2[C@@]2(C)CCC(=O)C=C12,10 to 100 nM,–,–,–,–,–,–
C[C@]12C=C/C(=N\O)C=C1C1(CC1)C[C@@H]1[C@@H]2CC[C@]2(C)C(c3cccnc3)=CC[C@@H]12,> 100 nM,–,10 to 50%,–,–,–,–
C[C@]12CCCC(=O)C1CC[C@@H]1[C@@H]2CC[C@]2(C)C(c3cccnc3)=CC[C@@H]12 (some centres undefined),–,–,–,≤ 11 nM,≤ 15 nM,≥ 80%,–
CC1C[C@H]2C3=CC=C(c4cccnc4)[C@@]3(C)CC[C@@H]2[C@@]2(C)CCN(C)C(=O)C=C12 (some centres undefined),10 to 100 nM,–,–,–,–,–,–
C[C@]12CCNC(=O)C=C1C1CC1[C@@H]1[C@@H]2CC[C@]2(C)C(c3cncc(F)c3)=CC[C@@H]12 (some centres undefined),–,1 to 50 min,≥ 50%,≤ 11 nM,≤ 15 nM,–,–
C[C@]12CCNC(=O)C[C@@H]1CC[C@@H]1[C@@H]2CC[C@]2(C)C(n3ccnn3)=CC[C@@H]12,–,≥ 50 min,–,≤ 11 nM,≤ 15 nM,≥ 80%,10 to 60 min
C[C@]12CCC(=O)C=C1C1CC1[C@@H]1[C@@H]2CC[C@]2(C)C(c3cncc(F)c3)=CC[C@@H]12 (some centres undefined),–,1 to 50 min,≥ 50%,≤ 11 nM,≤ 15 nM,–,–
CC1C[C@@H]2[C@H](CC[C@]3(C)C(c4cccnc4)=CC[C@@H]23)[C@@]2(C)CC/C(=N\O)C=C12 (some centres undefined),> 100 nM,1 to 50 min,10 to 50%,–,–,–,–
C[C@]12CC[C@H]3[C@@H](CC(CO)C4=CC(=O)CC[C@@]43C)C1=CC=C2c1cccnc1 (some centres undefined),> 100 nM,–,≥ 50%,≤ 11 nM,–,–,–
C[C@]12CC[C@H]3[C@@H](CC(F)C4(O)C[C@@H](O)CC[C@]34C)[C@@H]1CC=C2c1cncc(F)c1 (some centres undefined),–,1 to 50 min,≥ 50%,≤ 11 nM,≤ 15 nM,–,–
C[C@]12CC[C@H]3[C@@H](CC4(CC4)C4=CC(=O)CC[C@@]43C)C1=CC=C2c1cncc(F)c1,10 to 100 nM,–,–,–,–,–,–
C[C@]12CCC(=O)C=C1C=C[C@@H]1[C@@H]2CC[C@]2(C)C(c3cncc(F)c3)=CC[C@@H]12,–,1 to 50 min,≥ 50%,≤ 11 nM,≤ 15 nM,–,–
C[C@]12CC[C@H](O)CC1=CC[C@@H]1[C@@H]2CC[C@]2(C)C(c3cncc(C(F)F)c3)=CC[C@@H]12,–,≥ 50 min,≥ 50%,≤ 11 nM,≤ 15 nM,–,–
COc1cncc(C2=CC=C3[C@@H]4CC=C5C[C@@H](O)CC[C@]5(C)[C@H]4CC[C@]23C)c1,–,≥ 50 min,–,≤ 11 nM,≤ 15 nM,≥ 80%,≥ 50 min
C=C1C[C@H]2C3=CC=C(c4cncc(F)c4)[C@@]3(C)CC[C@@H]2[C@@]2(C)CCC(=O)C=C12,10 to 100 nM,–,–,–,–,–,–
"CC1CC2C3=CC=C(c4cncc(F)c4)[C@@]3(C)CC[C@@H]2[C@@]2(C)CCN(C)C(=O)C=C12 (single isomer, unassigned)",> 100 nM,–,–,–,–,–,–
"C[C@]12CCC(=O)C=C1C(F)CC1[C@@H]2CC[C@]2(C)C(c3cccnc3)=CC[C@@H]12 (single isomer, unassigned)",–,1 to 50 min,≥ 50%,≤ 11 nM,≤ 15 nM,–,–

# From ChEMBL document CHEMBL3882724 (2013)
